These are literature values, as cited in patent publication US20250288577A1, “METHODS OF TREATING A VIRUS INFECTION AND METHODS OF INHIBITING VIRAL REPLICATION” (CORNELL UNIVERSITY, priority 2022, published 2025).

Series [1] has as its system Adenovirus. The settings on record: reported in literature.
For series [2], the system named is influenza A. To be noted: reported in literature.

Turning to `O=C(Cc1cccc(OC(F)(F)F)c1)Nc1ccc(CCCCc2nnc(NC(=O)Cc3ccccn3)s2)nn1` [CB839, Telaglenastat], the “block of Adenovirus” value in series [1] is recorded as “block”. In series [2], the “block of influenza A” value was “block”.
